Assay results: publication PMC10070484, “Structure and mechanism of oxalate transporter OxlT in an oxalate-degrading bacterium in the gut microbiota” (Nature Communications, 2023)

How the values were obtained:
Assay in all cases: GFP thermal shift (GFP-TS)
Format in all cases: binding
Conditions in all cases: 3 mM potassium oxalate; crude DDM-solubilised OxlT-GFPuv from E. coli membranes; 300 mM potassium acetate, pH 7.0
[1] = target: T1, OxlT (Oxalobacter formigenes, UniProt Q51330, W324A)
T1 construct: full-length; C-terminal nona-His tag from E. coli XL3 (crystal, purified); C-terminal GFPuv fusion from E. coli BL21(DE3) in DDM (GFP-TS); pRSF-OxlT for transport; monomer
T1 sequence (Q51330 whole entry W324A, the tested form may be a part): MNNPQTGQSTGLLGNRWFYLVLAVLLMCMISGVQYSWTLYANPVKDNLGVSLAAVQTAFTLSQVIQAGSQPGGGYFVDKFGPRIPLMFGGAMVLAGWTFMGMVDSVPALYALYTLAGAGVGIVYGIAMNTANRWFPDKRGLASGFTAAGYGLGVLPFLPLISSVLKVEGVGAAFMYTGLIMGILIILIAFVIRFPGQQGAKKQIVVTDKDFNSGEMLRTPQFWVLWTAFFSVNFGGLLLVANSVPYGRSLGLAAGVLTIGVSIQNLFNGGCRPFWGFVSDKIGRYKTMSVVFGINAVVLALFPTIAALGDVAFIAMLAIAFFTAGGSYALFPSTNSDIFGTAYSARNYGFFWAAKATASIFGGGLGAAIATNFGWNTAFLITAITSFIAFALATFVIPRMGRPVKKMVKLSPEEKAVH

[2] = target: T2, OxlT (Oxalobacter formigenes, UniProt Q51330, Y35A)
T2 construct: full-length; C-terminal nona-His tag from E. coli XL3 (crystal, purified); C-terminal GFPuv fusion from E. coli BL21(DE3) in DDM (GFP-TS); pRSF-OxlT for transport; monomer
T2 sequence (Q51330 whole entry Y35A, the tested form may be a part): as the sequence (Q51330 whole entry W324A, the tested form may be a part) above, with Y35A, A324W counted along it

[3] = target: T3, OxlT (Oxalobacter formigenes, UniProt Q51330, Y328A)
T3 construct: full-length; C-terminal nona-His tag from E. coli XL3 (crystal, purified); C-terminal GFPuv fusion from E. coli BL21(DE3) in DDM (GFP-TS); pRSF-OxlT for transport; monomer
T3 sequence (Q51330 whole entry Y328A, the tested form may be a part): as the sequence (Q51330 whole entry W324A, the tested form may be a part) above, with A324W, Y328A counted along it

[4] = target: T4, OxlT (Oxalobacter formigenes, UniProt Q51330, Y150A)
T4 construct: full-length; C-terminal nona-His tag from E. coli XL3 (crystal, purified); C-terminal GFPuv fusion from E. coli BL21(DE3) in DDM (GFP-TS); pRSF-OxlT for transport; monomer
T4 sequence (Q51330 whole entry Y150A, the tested form may be a part): as the sequence (Q51330 whole entry W324A, the tested form may be a part) above, with Y150A, A324W counted along it

[5] = target: T5, OxlT (Oxalobacter formigenes, UniProt Q51330, Y124A)
T5 construct: full-length; C-terminal nona-His tag from E. coli XL3 (crystal, purified); C-terminal GFPuv fusion from E. coli BL21(DE3) in DDM (GFP-TS); pRSF-OxlT for transport; monomer
T5 sequence (Q51330 whole entry Y124A, the tested form may be a part): as the sequence (Q51330 whole entry W324A, the tested form may be a part) above, with Y124A, A324W counted along it

[6] = target: T6, OxlT (Oxalobacter formigenes, UniProt Q51330, Q34A)
T6 construct: full-length; C-terminal nona-His tag from E. coli XL3 (crystal, purified); C-terminal GFPuv fusion from E. coli BL21(DE3) in DDM (GFP-TS); pRSF-OxlT for transport; monomer
T6 sequence (Q51330 whole entry Q34A, the tested form may be a part): as the sequence (Q51330 whole entry W324A, the tested form may be a part) above, with Q34A, A324W counted along it

[7] = target: T7, OxlT (Oxalobacter formigenes, UniProt Q51330, N268A)
T7 construct: full-length; C-terminal nona-His tag from E. coli XL3 (crystal, purified); C-terminal GFPuv fusion from E. coli BL21(DE3) in DDM (GFP-TS); pRSF-OxlT for transport; monomer
T7 sequence (Q51330 whole entry N268A, the tested form may be a part): as the sequence (Q51330 whole entry W324A, the tested form may be a part) above, with N268A, A324W counted along it

[8] = target: T8, OxlT (Oxalobacter formigenes, UniProt Q51330, R272A)
T8 construct: full-length; C-terminal nona-His tag from E. coli XL3 (crystal, purified); C-terminal GFPuv fusion from E. coli BL21(DE3) in DDM (GFP-TS); pRSF-OxlT for transport; monomer
T8 sequence (Q51330 whole entry R272A, the tested form may be a part): as the sequence (Q51330 whole entry W324A, the tested form may be a part) above, with R272A, A324W counted along it

[9] = target: T9, OxlT (Oxalobacter formigenes, UniProt Q51330, K355Q)
T9 construct: full-length; C-terminal nona-His tag from E. coli XL3 (crystal, purified); C-terminal GFPuv fusion from E. coli BL21(DE3) in DDM (GFP-TS); pRSF-OxlT for transport; monomer
T9 sequence (Q51330 whole entry K355Q, the tested form may be a part): as the sequence (Q51330 whole entry W324A, the tested form may be a part) above, with A324W, K355Q counted along it

[10] = target: T10, OxlT (Oxalobacter formigenes, UniProt Q51330, W352A)
T10 construct: full-length; C-terminal nona-His tag from E. coli XL3 (crystal, purified); C-terminal GFPuv fusion from E. coli BL21(DE3) in DDM (GFP-TS); pRSF-OxlT for transport; monomer
T10 sequence (Q51330 whole entry W352A, the tested form may be a part): as the sequence (Q51330 whole entry W324A, the tested form may be a part) above, with A324W, W352A counted along it

[11] = target: T11, OxlT (Oxalobacter formigenes, UniProt Q51330)
T11 construct: full-length; C-terminal nona-His tag from E. coli XL3 (crystal, purified); C-terminal GFPuv fusion from E. coli BL21(DE3) in DDM (GFP-TS); pRSF-OxlT for transport; monomer
T11 sequence (Q51330 1-418): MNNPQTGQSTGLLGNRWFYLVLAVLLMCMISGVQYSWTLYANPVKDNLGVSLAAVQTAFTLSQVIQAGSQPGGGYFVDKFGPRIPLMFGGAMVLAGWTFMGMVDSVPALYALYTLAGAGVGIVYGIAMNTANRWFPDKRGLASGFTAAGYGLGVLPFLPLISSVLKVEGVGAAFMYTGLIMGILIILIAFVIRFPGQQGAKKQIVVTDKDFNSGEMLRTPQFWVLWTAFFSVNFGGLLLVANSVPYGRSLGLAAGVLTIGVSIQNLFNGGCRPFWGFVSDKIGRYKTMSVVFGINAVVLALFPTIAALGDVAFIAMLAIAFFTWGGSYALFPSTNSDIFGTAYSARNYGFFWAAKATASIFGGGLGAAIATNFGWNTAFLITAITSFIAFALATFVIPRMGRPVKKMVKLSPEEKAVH

O=C(O)C(=O)O [oxalate]
dTm [1]: reduced in the mutant OxlT proteins Q34A, Y35A, Y124A, Y150A, N268A, R272A, W324A and K355Q
dTm [2]: reduced in the mutant OxlT proteins Q34A, Y35A, Y124A, Y150A, N268A, R272A, W324A and K355Q
dTm [3]: Y328A and W352A showed similar oxalate binding but reduced oxalate uptake activities
dTm [4]: reduced in the mutant OxlT proteins Q34A, Y35A, Y124A, Y150A, N268A, R272A, W324A and K355Q
dTm [5]: reduced in the mutant OxlT proteins Q34A, Y35A, Y124A, Y150A, N268A, R272A, W324A and K355Q
dTm [6]: reduced in the mutant OxlT proteins Q34A, Y35A, Y124A, Y150A, N268A, R272A, W324A and K355Q
dTm [7]: reduced in the mutant OxlT proteins Q34A, Y35A, Y124A, Y150A, N268A, R272A, W324A and K355Q
dTm [8]: reduced in the mutant OxlT proteins Q34A, Y35A, Y124A, Y150A, N268A, R272A, W324A and K355Q
dTm [9]: reduced in the mutant OxlT proteins Q34A, Y35A, Y124A, Y150A, N268A, R272A, W324A and K355Q
dTm [10]: Y328A and W352A showed similar oxalate binding but reduced oxalate uptake activities
dTm [11]: In the GFP-TS assay, wild-type OxlT exhibited thermal stabilisation upon oxalate binding.
